Laboratory results published in patent US7138415B2, “Indolamid derivatives which possess glycogenphosphorylase inhibitory activity” (AstraZeneca AB, priority 2002, dated 2006).

Experiments:
hepatocytes = details: cited from earlier work
[1] = db/db and ob/ob mice; cited from earlier work
[2] = biological target: T1, Human recombinant liver glycogen phosphorylase α (hrl GPα) (Homo sapiens, UniProt P06737); assay: Glycogen phosphorylase inhibition of glycogen degradation (multienzyme coupled assay, NADH fluorescence); type: biochemical; details: glycogen degradation direction
T1 sequence (P06737 1-847): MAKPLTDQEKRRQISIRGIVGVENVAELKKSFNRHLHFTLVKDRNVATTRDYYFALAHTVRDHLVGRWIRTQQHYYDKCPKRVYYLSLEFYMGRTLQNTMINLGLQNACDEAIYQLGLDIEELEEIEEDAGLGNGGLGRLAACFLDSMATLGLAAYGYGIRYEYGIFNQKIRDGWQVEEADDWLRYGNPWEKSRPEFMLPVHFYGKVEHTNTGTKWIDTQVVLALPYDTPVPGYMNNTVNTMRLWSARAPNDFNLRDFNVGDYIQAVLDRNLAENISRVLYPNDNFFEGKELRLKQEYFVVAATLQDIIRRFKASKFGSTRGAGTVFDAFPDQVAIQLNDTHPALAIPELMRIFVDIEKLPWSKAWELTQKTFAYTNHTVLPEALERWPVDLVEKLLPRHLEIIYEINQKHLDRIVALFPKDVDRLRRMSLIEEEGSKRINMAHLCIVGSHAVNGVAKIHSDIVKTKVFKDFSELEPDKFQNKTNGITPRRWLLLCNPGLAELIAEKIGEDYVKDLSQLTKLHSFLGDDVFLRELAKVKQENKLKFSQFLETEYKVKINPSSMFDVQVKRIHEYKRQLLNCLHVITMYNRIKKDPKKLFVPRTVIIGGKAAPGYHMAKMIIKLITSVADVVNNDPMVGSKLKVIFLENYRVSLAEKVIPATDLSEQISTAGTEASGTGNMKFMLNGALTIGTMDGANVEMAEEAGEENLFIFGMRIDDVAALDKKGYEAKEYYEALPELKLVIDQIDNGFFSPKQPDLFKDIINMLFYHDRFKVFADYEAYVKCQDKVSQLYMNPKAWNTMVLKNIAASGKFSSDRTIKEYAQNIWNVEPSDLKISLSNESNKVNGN
Method: The activity of the compounds is alternatively determined by measuring the inhibitory effect of the compounds on glycogen degradation, the production of glucose-1-phosphate from glycogen is monitored by the multienzyme coupled assay, as described in EP 0 846 464 A2, general method of Pesce et al (Pesce, M A, Bodourian, S H, Harris, R C, and Nicholson, J F (1977) Clinical Chemistry 23, […]). The reactions were in 384well microplate format in a volume of 50 μl. The change in fluorescence due to the conversion of the co-factor NAD to NADH is measured at 340 nm excitation, 465 nm emission in a Tecan Ultra Multifunctional Microplate Reader. The reaction is in 50 mM HEPES, 3.5 mM KH2PO4, 2.5 mM MgCl2, 2.5mM ethylene glycol-bis(b-aminoethyl ether) N,N,N′,N′-tetraacetic acid, 100 mM KCl, 8mM D-(+)-glucose pH7.2, containing 0.5 mM dithiothreitol, the assay buffer solution. Human recombinant liver glycogen phosphorylase α (hrl GPα) 20 nM is pre-incubated in assay buffer solution with 6.25 mM NAD, 1.25 mg type III glycogen at 1.25 mg ml^−1 the reagent buffer, for 30 minutes. […] The non-inhibited activity of GPα is measured in the presence of 10 μl 5% DMSO in assay buffer solution and maximum inhibition measured in the presence of 5 mgs ml^−1 N-ethylmaleimide. […] Relative Fluoresence Units (RFUs) are measured at 340 nm excitation, 465 nm emission. […]

[3] = conscious dogs; cited from earlier work

Compound	glucagon stimulated glycogenolysis (hepatocytes)	glucose output in hepatocytes (hepatocytes)	plasma glucose concentration [1]	IC50 [2] [µM]	arterial plasma glucose following a glucagon challenge [3]	hepatic glucose output following a glucagon challenge [3]
CN(C)C(=O)[C@H](O)[C@H](Cc1ccccc1)NC(=O)c1cc2cc(Cl)ccc2[nH]1 [CP91149]	reduce	reduce	reduced, in a dose related manner	–	–	–
O=C(CN(CCO)Cc1ccccc1)N[C@@H]1c2ccccc2C[C@H]1NC(=O)c1cc2cc(Cl)ccc2[nH]1 [Example 17, 5-Chloro-N-[(1R,2R)-1-({[(2-hydroxyethyl)(phenylmethyl)amino]acetyl}amino)-2,3-dihydro-1H-inden-2-yl]-1H-indole-2-carboxamide]	–	–	–	7.4	–	–
O=C(N[C@@H](Cc1ccc(F)cc1)C(=O)N1CCC(O)CC1)c1cc2cc(Cl)ccc2[nH]1 [CP320626]	reduce	reduce	reduced, in a dose related manner	–	–	–
CCN1C(C)=C(C(=O)OC(C)C)C(c2ccccc2Cl)C2=C1COC2=O (stereo not drawn) [Bay R 3401]	–	–	–	–	reduced significantly	reduced significantly
